We go through 8 compounds from patent US20260028326A1, “COMPOUND BASED ON ISOINDOLINE-SUBSTITUTED GLUTARIMIDE BACKBONE AND USE THEREOF” (GLUETACS THERAPEUTICS (SHANGHAI) CO., LTD., priority 2022, published 2026).

Series [1] has as its target IKZF3 protein (Homo sapiens (Human), UniProt Q96SW2+Q9UKT9). The series is described as follows: Western-blot assay of substrate protein degradation in hPBMC, IKZF3. Type of series: cell-based. The settings on record: hPBMC cells, compound 500 nM, 24 hours, Western blot. (Immunoblotting shows a protein as a band on a membrane.)
Series [2] addresses GSPT1 protein (Homo sapiens (Human), UniProt P15170+Q96SW2). The series can be described thus: Western-blot assay of substrate protein degradation in hPBMC, GSPT1. Type of series: cell-based. The following applies: hPBMC cells, compound 500 nM, 24 hours, Western blot.
Series [3] deals with Kasumi-1 cells. The series is described as follows: Tumor cell proliferation IC50 (CCK-8), Kasumi-1. The following applies: Homo sapiens, Kasumi 1, 72 h, read-out: IC50 for inhibiting the proliferation of tumor cells, Kasumi-1.
Procedure: (§1) The tumor cells used herein were cultured in a cell culture medium listed in table A at 37° C. in an incubator with 5% CO2.
(§2) After the cells were treated with the compounds of the present disclosure for a period of time, the cell viability detection reagent was added to the culture medium for cell viability assessment according to the instructions provided with the CCK-8 kit. […] The growth inhibition of the compounds of the present disclosure on cells was plotted by Prism Graphpad software, and the IC50 values of the compounds of the present disclosure were calculated therefrom.
A short description of series [4]: Pharmacokinetic study, oral administration, mouse plasma. Format: in vivo, mice. As for the experimental part:
The experimental animals used can be those commonly used in pharmacokinetic experiments, e.g., adult and healthy rodents (e.g., mice, rats (such as Sprague-Dawley (SD) rats), guinea pigs) or non-rodents (rabbits, dogs, and monkeys). In the present disclosure, mice were used as the experimental animals.
The experimental animals were divided into two groups: a control group (for collecting blank plasma) and an orally administered group (dosed at 10 mg/kg or 30 mg/kg). Blood samples were collected at predetermined sampling time points after administration, such as 0.25 h, 0.5 h, 1 h, 2 h, 4 h, 8 h, and 24 h post-dosing. Blank plasma was collected from the control group.
Plasma samples were preprocessed before analysis: 10 μL of 50% acetonitrile and 200 μL of internal standard solution (containing 50 ng/mL dexamethasone in acetonitrile) were added to 10 μL of plasma samples. For the blank control group, the same volume of acetonitrile was added instead of the internal standard. The processed samples were vortexed, centrifuged, and the supernatant was taken for LC-MS/MS injection analysis.
After preparing standard curves and quality control (QC) samples, the concentrations of the compounds in the plasma samples were determined by LC-MS/MS analysis. Based on the plasma concentration data obtained from LC-MS/MS analysis, the pharmacokinetic parameters of the test compounds were calculated using the non-compartmental model in the pharmacokinetic calculation software WinNonlin v8.1.

The subject of series [5] is SW620 cells. The series is described as follows: Tumor cell proliferation IC50 (CCK-8), SW620. The settings on record: Homo sapiens, SW-620, 96 h, read-out: IC50 for inhibiting the proliferation of tumor cells, SW620.
Procedure: as §1, §2
The test system of series [6] is Ramos cells. The series can be described thus: Tumor cell proliferation IC50 (CCK-8), Ramos. The following applies: Homo sapiens, 72 h, read-out: IC50 for inhibiting the proliferation of tumor cells, Ramos.
Procedure: as §1, §2
In series [7] the test system is MM.1R cells. The series is described as follows: Tumor cell proliferation IC50 (CCK-8), MM.1R. The settings on record: Homo sapiens, 72 h, read-out: IC50 for inhibiting the proliferation of tumor cells, MM.1R.
Procedure: as §1, §2
For series [8], the system named is MDA-MB-231 cells. The series can be described thus: Tumor cell proliferation IC50 (CCK-8), MDA-MB-231. The settings on record: Homo sapiens, MDA-MB-231, 96 h, read-out: IC50 for inhibiting the proliferation of tumor cells, MDA-MB-231.
Procedure: (§3) Prior to experimentation, all cells used were correctly identified by STR profiling, and tested negative for mycoplasma through routine screenings.
as §2
Series [9] concerns CCRF-CEM cells. The series is described as follows: Tumor cell proliferation IC50 (CCK-8), CCRF-CEM.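 Also: cell viability measured with CCK-8 reagent after compound treatment, IC50 taken from plotted growth inhibition curves.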 The settings on record: Homo sapiens, 96 h, read-out: IC50 for inhibiting the proliferation of tumor cells, CCRF-CEM.
Series [10] has as its system TMD8 cells. The series can be described thus: Tumor cell proliferation IC50 (CCK-8), TMD8. The settings on record: Homo sapiens, TMD8, 72 h, read-out: IC50 for inhibiting the proliferation of tumor cells, TMD8.
Procedure: as §1, §2
In series [11] the test system is Daudi cells. The series can be described thus: Tumor cell proliferation IC50 (CCK-8), Daudi.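 Also: cell viability read with CCK-8 reagent after compound exposure of Daudi cells, IC50 derived from plotted growth inhibition curves.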 The following applies: Homo sapiens, read-out: IC50 for inhibiting the proliferation of tumor cells, Daudi.
Series [12] relates to MV-4-11 cells. The series is described as follows: Tumor cell proliferation IC50 (CCK-8), MV-4-11. The settings on record: Homo sapiens, MV4-11, 96 h, read-out: IC50 for inhibiting the proliferation of tumor cells, MV-4-11.
Procedure: as §1, §2
Series [13] relates to Mino cells. The series can be described thus: Tumor cell proliferation IC50 (CCK-8), Mino.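 Also: cell viability assessed with CCK-8 reagent after compound exposure, IC50 derived from plotted growth inhibition curves.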 The settings on record: Homo sapiens, 72 h, read-out: IC50 for inhibiting the proliferation of tumor cells, Mino.
In series [14] the test system is MM.1S cells. The series can be described thus: Tumor cell proliferation IC50 (CCK-8), MM.1S.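 Also: viability of cultured cells read by CCK-8 reagent after compound exposure, growth inhibition curves fitted to derive IC50.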 The following applies: Homo sapiens, MM1.S, 72 h, read-out: IC50 for inhibiting the proliferation of tumor cells, MM.1S.
Procedure: as §1, §2
The target of series [15] is human Cereblon WT GST-tagged protein (Homo sapiens (Human), UniProt Q96SW2). The series can be described thus: CRBN-binding affinity, HTRF (CEREBLON BINDING kit). The essentials:
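HTRF competition readout: compounds compete with a thalidomide-Re conjugate for GST-tagged wild-type human CRBN detected via Eu-labelled anti-GST antibody. Inhibition rate derived relative to protein-free blank wells.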
For orientation: Time-resolved FRET reads energy transfer from a long-lived donor to a nearby acceptor.

For series [16], the target named is IKZF1 protein (Homo sapiens (Human), UniProt Q13422+Q96SW2). The series can be described thus: Western-blot assay of substrate protein degradation in hPBMC, IKZF1. Format: cell-based. The following applies: hPBMC cells, compound 500 nM, 24 hours, Western blot.
IKZF1 protein, sequence (Q13422 whole entry): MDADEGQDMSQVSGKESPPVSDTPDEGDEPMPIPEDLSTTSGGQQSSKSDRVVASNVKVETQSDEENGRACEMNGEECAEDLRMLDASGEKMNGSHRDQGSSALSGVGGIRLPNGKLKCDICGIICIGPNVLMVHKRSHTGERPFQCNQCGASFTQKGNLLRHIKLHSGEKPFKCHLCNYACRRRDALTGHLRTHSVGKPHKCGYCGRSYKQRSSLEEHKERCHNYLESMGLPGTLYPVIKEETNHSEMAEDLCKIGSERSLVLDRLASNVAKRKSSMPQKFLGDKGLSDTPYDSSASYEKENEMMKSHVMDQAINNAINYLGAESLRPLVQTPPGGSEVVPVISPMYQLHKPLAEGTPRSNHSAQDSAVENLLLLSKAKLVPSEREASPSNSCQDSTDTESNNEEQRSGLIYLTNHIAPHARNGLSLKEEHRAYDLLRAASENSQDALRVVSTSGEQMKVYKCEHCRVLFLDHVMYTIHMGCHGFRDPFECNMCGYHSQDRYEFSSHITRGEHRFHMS
IKZF1 protein, sequence (Q96SW2 whole entry): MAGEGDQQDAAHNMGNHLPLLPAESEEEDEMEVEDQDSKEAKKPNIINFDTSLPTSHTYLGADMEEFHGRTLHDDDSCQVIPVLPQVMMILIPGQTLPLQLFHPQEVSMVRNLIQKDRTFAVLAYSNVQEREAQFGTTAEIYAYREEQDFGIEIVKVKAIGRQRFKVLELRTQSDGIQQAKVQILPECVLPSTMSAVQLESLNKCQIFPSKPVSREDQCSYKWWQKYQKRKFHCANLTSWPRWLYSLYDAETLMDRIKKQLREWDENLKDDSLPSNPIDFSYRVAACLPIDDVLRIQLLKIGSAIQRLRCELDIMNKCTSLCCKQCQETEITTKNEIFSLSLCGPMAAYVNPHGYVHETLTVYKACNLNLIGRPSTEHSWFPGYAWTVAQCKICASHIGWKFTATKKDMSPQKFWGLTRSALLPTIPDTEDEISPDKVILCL
IKZF1 protein, sequence (Q16531 whole entry partner): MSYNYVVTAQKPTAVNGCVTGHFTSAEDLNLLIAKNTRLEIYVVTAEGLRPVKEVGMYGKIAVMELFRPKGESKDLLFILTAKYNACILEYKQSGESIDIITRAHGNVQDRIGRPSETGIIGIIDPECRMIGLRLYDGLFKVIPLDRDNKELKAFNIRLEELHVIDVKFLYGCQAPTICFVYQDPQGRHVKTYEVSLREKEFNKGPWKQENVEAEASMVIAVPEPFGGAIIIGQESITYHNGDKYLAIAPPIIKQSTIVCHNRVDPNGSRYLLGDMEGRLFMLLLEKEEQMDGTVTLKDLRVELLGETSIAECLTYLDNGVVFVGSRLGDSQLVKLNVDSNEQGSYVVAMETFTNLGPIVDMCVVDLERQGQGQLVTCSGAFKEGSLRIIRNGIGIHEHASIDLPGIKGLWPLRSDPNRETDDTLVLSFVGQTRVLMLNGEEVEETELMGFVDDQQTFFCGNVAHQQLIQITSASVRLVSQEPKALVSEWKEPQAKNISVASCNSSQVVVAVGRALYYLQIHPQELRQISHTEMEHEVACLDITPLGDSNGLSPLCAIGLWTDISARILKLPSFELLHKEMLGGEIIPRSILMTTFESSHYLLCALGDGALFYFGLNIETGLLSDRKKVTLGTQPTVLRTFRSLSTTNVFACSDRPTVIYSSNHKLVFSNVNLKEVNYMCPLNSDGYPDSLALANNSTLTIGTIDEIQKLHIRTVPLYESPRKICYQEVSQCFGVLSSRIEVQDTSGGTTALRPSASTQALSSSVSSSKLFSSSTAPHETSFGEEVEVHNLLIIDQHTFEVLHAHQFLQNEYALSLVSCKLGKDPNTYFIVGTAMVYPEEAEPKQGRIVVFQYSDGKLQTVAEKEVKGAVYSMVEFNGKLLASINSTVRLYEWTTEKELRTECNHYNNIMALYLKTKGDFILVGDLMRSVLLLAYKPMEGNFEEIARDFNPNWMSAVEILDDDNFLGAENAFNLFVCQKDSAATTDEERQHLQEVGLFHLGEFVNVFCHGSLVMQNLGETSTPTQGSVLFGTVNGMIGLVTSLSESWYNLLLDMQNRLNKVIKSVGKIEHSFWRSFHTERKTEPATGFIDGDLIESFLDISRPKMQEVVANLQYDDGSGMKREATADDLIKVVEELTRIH
Series [17] concerns SU-DHL-4 cells. The series is described as follows: Tumor cell proliferation IC50 (CCK-8), SU-DHL-4. The following applies: Homo sapiens, SU-DHL-4, 72 h, read-out: IC50 for inhibiting the proliferation of tumor cells, SU-DHL-4.
Procedure: as §3, §2

IKZF3 protein, sequence (Q9UKT9 whole entry): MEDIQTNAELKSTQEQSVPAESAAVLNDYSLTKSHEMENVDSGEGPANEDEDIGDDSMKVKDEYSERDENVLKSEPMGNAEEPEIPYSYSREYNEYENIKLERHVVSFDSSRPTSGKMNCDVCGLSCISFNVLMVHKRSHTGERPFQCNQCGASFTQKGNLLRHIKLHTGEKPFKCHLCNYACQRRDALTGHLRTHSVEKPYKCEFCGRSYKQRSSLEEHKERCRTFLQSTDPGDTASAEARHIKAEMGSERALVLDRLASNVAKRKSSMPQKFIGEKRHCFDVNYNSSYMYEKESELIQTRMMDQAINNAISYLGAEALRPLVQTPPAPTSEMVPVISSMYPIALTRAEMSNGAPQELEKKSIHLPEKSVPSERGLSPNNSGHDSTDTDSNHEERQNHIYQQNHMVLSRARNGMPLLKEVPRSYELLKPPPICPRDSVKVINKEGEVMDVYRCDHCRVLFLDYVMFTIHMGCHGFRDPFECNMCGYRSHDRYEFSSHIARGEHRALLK
IKZF3 protein, sequence (Q96SW2 whole entry): as the sequence (Q96SW2 whole entry) above
IKZF3 protein, sequence (Q16531 whole entry partner): as the sequence (Q16531 whole entry partner) above
human Cereblon WT GST-tagged protein, sequence (Q96SW2 whole entry): as the sequence (Q96SW2 whole entry) above
GSPT1 protein, sequence (P15170 whole entry): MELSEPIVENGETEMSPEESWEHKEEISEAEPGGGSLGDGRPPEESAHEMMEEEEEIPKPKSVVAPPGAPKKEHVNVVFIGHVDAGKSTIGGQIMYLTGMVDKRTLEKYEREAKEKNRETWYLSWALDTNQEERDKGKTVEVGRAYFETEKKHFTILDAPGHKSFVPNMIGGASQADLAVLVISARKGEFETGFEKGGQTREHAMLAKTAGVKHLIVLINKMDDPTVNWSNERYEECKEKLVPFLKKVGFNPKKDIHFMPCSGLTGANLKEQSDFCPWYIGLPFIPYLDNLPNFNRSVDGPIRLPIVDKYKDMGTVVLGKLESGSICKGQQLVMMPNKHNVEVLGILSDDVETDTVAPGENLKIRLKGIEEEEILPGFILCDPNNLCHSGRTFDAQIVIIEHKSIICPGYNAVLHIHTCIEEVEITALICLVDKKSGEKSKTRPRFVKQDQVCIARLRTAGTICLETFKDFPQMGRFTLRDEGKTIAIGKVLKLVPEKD
GSPT1 protein, sequence (Q96SW2 whole entry): as the sequence (Q96SW2 whole entry) above
GSPT1 protein, sequence (Q16531 whole entry partner): as the sequence (Q16531 whole entry partner) above

As to `CC1(C)CCC(CN2CCN(Cc3ccc4c(c3)CN(C3CCC(=O)NC3=O)C4=O)CC2)=C(c2ccc(Cl)cc2)C1` (stereo not shown) [GT-02785, 3-(5-((4-((4′-chloro-5,5-dimethyl-3,4,5,6-tetrahydro-[1,1′-biphenyl]-2-yl)methyl)piperazin-1-yl)methyl)-1-oxoisoindolin-2-yl)piperidine-2,6-dione], in [1], the “residual substrate protein level, IKZF3” value is “A (A represents a residual substrate protein level of <50%)”. The “residual substrate protein level, GSPT1” value in series [2] is given as “A (A represents a residual substrate protein level of <50%)”. Besides, the IC50 in series [3] lay within 50 to 100 nM; in series [5], 50 to 100 nM; in series [6], 100 to 500 nM; in [7] it was 10 to 50 nM; in [8], 50 to 100 nM; in series [9] it was 10 to 50 nM. Moreover, the IC50 in series [10] is 100 to 500 nM; in series [11], 159 nM; in series [12] it was 24 nM; in series [13], 5 to 10 nM; in series [14], below 5 nM; in [15] it was 3070 nM. Also, the AUC(0-t) – broadly, the area under the concentration-time curve up to a stated or last time point – in series [4] (p.o. 10 mg/kg) is above 500 ng·h/mL. Besides, the “residual substrate protein level, IKZF1” value in series [16] was “A (A represents a residual substrate protein level of <50%)”.
For `CC1(C)CCC(CN2CCN(Cc3ccc4c(c3)CN(C3CCC(=O)NC3=O)C4=O)CC2)=C(c2ccc(F)cc2)C1` (stereo not shown) [GT-03454, 3-(5-((4-((4′-fluoro-5,5-dimethyl-3,4,5,6-tetrahydro-[1,1′-biphenyl]-2-yl)methyl)piperazin-1-yl)methyl)-1-oxoisoindolin-2-yl)piperidine-2,6-dione], the “residual substrate protein level, IKZF3” value in series [1] is on record as “A (A represents a residual substrate protein level of <50%)”. Moreover, in series [2], the “residual substrate protein level, GSPT1” value is reported as “A (A represents a residual substrate protein level of <50%)”. For the same compound, the IC50 in series [6] was 1000 to 5000 nM; in series [7], 100 to 500 nM; in series [9], 10 to 50 nM; in series [10], 1000 to 5000 nM; in series [15], 410 nM. In series [16], the “residual substrate protein level, IKZF1” value is listed as “A (A represents a residual substrate protein level of <50%)”.
As to `CC1(C)CCC(CN2CCN(Cc3cc(F)c4c(c3)CN(C3CCC(=O)NC3=O)C4=O)CC2)=C(c2ccc(Cl)cc2)C1` (stereo not shown) [GT-03469, 3-(5-((4-((4′-chloro-5,5-dimethyl-3,4,5,6-tetrahydro-[1,1′-biphenyl]-2-yl)methyl)piperazin-1-yl)methyl)-7-fluoro-1-oxoisoindolin-2-yl)piperidine-2,6-dione], the IC50 is 100 to 500 nM in series [8], 1000 to 5000 nM in [9] and 2120 nM in series [15].
Turning to `O=C1CCC(N2Cc3c(ccc(CN4CCN(Cc5ccccc5-c5ccc(Cl)cc5)CC4)c3F)C2=O)C(=O)N1` (stereo not shown) [GT-03694, 3-(5-((4-((4′-chloro-[1,1′-biphenyl]-2-yl)methyl)piperazin-1-yl)methyl)-4-fluoro-1-oxoisoindolin-2-yl)piperidine-2,6-dione], the “residual substrate protein level, IKZF3” value in series [1] is recorded as “A (A represents a residual substrate protein level of <50%)”. Moreover, in series [2], the “residual substrate protein level, GSPT1” value is “A (A represents a residual substrate protein level of <50%)”. The compound further returned an AUC(0-t) in series [4] (p.o. 30 mg/kg) above 500 ng·h/mL. The IC50 in [5] was below 5 nM; in series [17] it was 100 to 500 nM; in [13], 5 to 10 nM; in [15], 540 nM. Further, in series [16], the “residual substrate protein level, IKZF1” value is reported as “A (A represents a residual substrate protein level of <50%)”.
As for `O=C1CCC(N2Cc3cc(CN4CCN(Cc5ccccc5-c5ccc(Cl)cc5)CC4)c(F)cc3C2=O)C(=O)N1` (stereo not shown) [GT-03695, 3-(5-((4-((4′-chloro-[1,1′-biphenyl]-2-yl)methyl)piperazin-1-yl)methyl)-6-fluoro-1-oxoisoindolin-2-yl)piperidine-2,6-dione], in series [1], the “residual substrate protein level, IKZF3” value is given as “A (A represents a residual substrate protein level of <50%)”. Further, the “residual substrate protein level, GSPT1” value in series [2] is recorded as “A (A represents a residual substrate protein level of <50%)”. The compound further yielded an AUC(0-t) in series [4] (p.o. 30 mg/kg) above 500 ng·h/mL. The IC50 in series [5] is 5 to 10 nM; in series [17] it was 50 to 100 nM; in series [13], 5 to 10 nM; in series [15], 1170 nM. The “residual substrate protein level, IKZF1” value in [16] is recorded as “A (A represents a residual substrate protein level of <50%)”.
In the case of `CC1(C)CCC(CN2CCN(Cc3cc4c(cc3F)C(=O)N(C3CCC(=O)NC3=O)C4)CC2)=C(c2ccc(F)cc2)C1` (stereo not shown) [GT-05391, 3-(6-fluoro-5-((4-((4′-fluoro-5,5-dimethyl-3,4,5,6-tetrahydro-[1,1′-biphenyl]-2-yl)methyl)piperazin-1-yl)methyl)-1-oxoisoindolin-2-yl)piperidine-2,6-dione], the “residual substrate protein level, IKZF3” value in [1] is listed as “A (A represents a residual substrate protein level of <50%)”. Moreover, the “residual substrate protein level, GSPT1” value in series [2] is “A (A represents a residual substrate protein level of <50%)”. In addition, the IC50 in [3] is 10 to 50 nM; in [9], below 5 nM; in series [11] it was 10 to 50 nM; in series [12], below 5 nM; in series [13], 5 to 10 nM; in series [14] it was 5 to 10 nM. In addition, in [15], the IC50 stood at 570 nM. The “residual substrate protein level, IKZF1” value in [16] was “A (A represents a residual substrate protein level of <50%)”.
On to `O=C1CCC(N2Cc3cc(CC4CCN(C(=O)c5ccccc5-c5ccc(Cl)cc5)CC4)ccc3C2=O)C(=O)N1` (stereo not shown) [GT-05467, 3-(5-((1-(4′-chloro-[1,1′-biphenyl]-2-carbonyl)piperidin-4-yl)methyl)-1-oxoisoindolin-2-yl)piperidine-2,6-dione], for which the “residual substrate protein level, IKZF3” value in [1] is “B (B represents a residual substrate protein level of >50%)”. Besides, in series [2], the “residual substrate protein level, GSPT1” value was “A (A represents a residual substrate protein level of <50%)”. Besides, the IC50 in [3] is 10 to 50 nM; in series [9] it was 5 to 10 nM; in [11] it was 100 to 500 nM; in series [12], 10 to 50 nM; in [13], 10 to 50 nM; in series [14] it was 10 to 50 nM. Further, the IC50 in series [15] is 520 nM. In addition, the “residual substrate protein level, IKZF1” value in series [16] was “B (B represents a residual substrate protein level of >50%)”.
Consider `O=C1CCC(N2Cc3cc(C=C4CN(C(=O)c5ccccc5-c5ccc(Cl)cc5)C4)ccc3C2=O)C(=O)N1` (stereo not shown) [GT-05482, 3-(5-((1-(4′-chloro-[1,1′-biphenyl]-2-carbonyl)azetidin-3-ylidene)methyl)-1-oxoisoindolin-2-yl)piperidine-2,6-dione], for which, in [1], the “residual substrate protein level, IKZF3” value is “B (B represents a residual substrate protein level of >50%)”. Further, in series [2], the “residual substrate protein level, GSPT1” value is “A (A represents a residual substrate protein level of <50%)”. The IC50 in series [3] fell in the range of 10 to 50 nM; in series [9], 5 to 10 nM; in [11], 10 to 50 nM; in series [12] it was 5 to 10 nM; in [13] it was 5 to 10 nM; in [14] it was 5 to 10 nM. The compound further gave an IC50 in series [15] of 330 nM. The “residual substrate protein level, IKZF1” value in [16] is “B (B represents a residual substrate protein level of >50%)”.
